Active and inactive are the calls of the source. The rule behind the calls is not given here.
Test system: HepG2 viability, cytotoxicity counter-screen
Experiment: cytotoxicity in HepG2 cells, cytotoxicity control, cell-based (AID 504642)
Settings: not given

Row | SMILES | CC50 [µM]
1 | S=c1nc[nH]c2nc[nH]c12 | 7.74
2 | CCOC(=O)c1ccc(NC(=O)Cn2ncc(Cl)c(Cl)c2=O)cc1 | 8.43
3 | Cc1cccc(-c2oc3ccc(-c4ccc5c(c4)OCO5)cc3c2C#Cc2cncn2C)c1 | 44.4
4 | COC(=O)c1cc(=O)n(-c2ccc(F)cc2)c(=Nc2ccc(F)cc2)s1 | 19.4
5 | CNc1nc(SCc2ccccc2Cl)nc2c1CCCC2 | 26.2
6 | Cc1cccc(/C=C/C(=O)c2ccc([N+](=O)[O-])o2)c1 | 7.91
7 | Cc1ccc2c(c1)c(C1=c3ccccc3=NC1=O)c(O)n2C | 12.9
8 | CCC(C)Nc1ccc(NC(C)CC)cc1 (stereo unspecified) | 6.41
9 | Oc1ccccc1/C=N/Nc1ccnc(SCc2ccccc2)n1 | 20.1
10 | Cc1nn2c(NCc3ccccn3)cc(C(C)C)nc2c1-c1ccccc1 | < 0.098
11 | Cc1ccc(C(=O)N/N=C(/CC(=O)c2cccs2)C(F)(F)F)cc1 | 27.5
12 | c1ccc(/N=C2\N=C(Nc3ccccn3)c3ccccc32)nc1 | < 0.098
13 | CC(C)NC(=O)c1sc(=S)n2c1[nH]c(=O)c1ccc(C(=O)NCCc3ccc(Cl)cc3)cc12 | 46.1
14 | Cc1ccc2ccc3ccc(C)nc3c2n1 | < 0.195

Test system: not listed separately
Experiment: as above
Settings: HepG2 viability, cytotoxicity counter-screen; at 25 µM (top of the series)

Row | SMILES | viability
15 | O=C(/C=C/c1ccccc1)N1CCN(CCN2C(=O)c3cccc4cccc(c34)C2=O)CC1 | 91.1% (inactive)
16 | COC(=O)C(Nc1nc(SCC(=O)NC2CCCCC2)nc2ccccc12)c1ccccc1 (stereo unspecified) | 100% (inactive)

Same assay, conditions: HepG2 viability, cytotoxicity counter-screen; at 50 µM (top of the series)

Row | SMILES | viability
17 | Cc1ccc(NC(=O)C2C3/C=C\CCCCC32)cc1C (stereo unspecified) | 101% (inactive)
18 | COC(=O)CCc1nc2c(C#N)c(-c3ccc(Cl)cc3)ccn2n1 | 102% (inactive)
19 | CCOC(=O)COn1c2c(c3c4no[n+]([O-])c4ccc31)CCCC2 | 85.5% (inactive)
20 | COC(=O)C(C)Oc1ccc(-c2nccc(-c3ccccn3)n2)cc1 (stereo unspecified) | 95.4% (inactive)
21 | COC(=O)c1ccc(CNc2c(N3CCCC3)c(=O)c2=O)cc1 | 97.5% (inactive)
22 | CC[N+](C)(CC)CCCCOc1ccc2c(c1)C(=O)c1cc(OCCCC[N+](C)(CC)CC)ccc1-2 | 93.8% (inactive)
23 | O=C(CSc1nc2ccccc2c(=O)[nH]1)NC1CCCCC1 | 103% (inactive)
24 | O=C(/C=C\c1cccs1)N1CCN(Cc2ccc3c(c2)OCO3)CC1 | 84.1% (inactive)
25 | COc1cc(NC(=O)C/C(C)=N/NC(=O)c2ccccn2)c(OC)cc1Cl | 86.2% (inactive)
26 | Cc1nc(SCC(=O)NC2CCCCC2)[nH]c(=O)c1C | 105% (inactive)
27 | COC(=O)C1CC(=O)N(c2ccc(OCc3ccccc3Cl)cc2)C1 (stereo unspecified) | 98.6% (inactive)
28 | CCOC(=O)CNC(=O)[C@H](Cc1ccccc1)NC(=O)OCc1ccccc1 | 97.3% (inactive)
29 | O=C1C(Br)=Cc2cccc3cccc1c23 | 86.1% (inactive)
30 | CC(=NCc1ccc2c(c1)OCO2)C1=C(O)c2ccccc2C1=O | 96.6% (inactive)
31 | CCc1ccc(/C=C2/C(=O)N(C)C(=S)N2CC(=O)OC)s1 | 78.9% (inactive)
32 | CC1CCN(C(=O)C2CCN(c3nnc(-n4cccc4)s3)CC2)CC1 | 81.6% (inactive)
33 | CCOC(=O)COc1ccc(/C=C2\NC(=S)N(CC)C2=O)cc1 | 94.6% (inactive)
34 | CCOC(=O)C(C)Sc1ncnc2c1nnn2-c1ccc(F)cc1 (stereo unspecified) | 94.1% (inactive)
35 | O=C(CSc1nc2ccccc2c(=O)[nH]1)NCc1ccc(Cl)cc1 | 90.7% (inactive)
36 | CCOC1OC(=O)C(Cl)=C1Nc1ccccc1C (stereo unspecified) | 97.8% (inactive)

— PubChem BioAssay AID504642 (Southern Research Specialized Biocontainment Screening …, 2011)
